Source: patent publication US9085550B2, “Ligands for estrogen related receptors and methods for synthesis of said ligands” (CITY OF HOPE, priority 2005, dated 2015)
“And” between values parts separate entries of the source, which are not always exact repeats. Equal values may be shown once.

Tests used:
[1] = target: T1, human ERβ (Homo sapiens, UniProt Q92731); test: ERE-TK-luc reporter transactivation assay in CV-1 cells, full-length hERb; format: cell-based; settings: for Fold activation, Receptor ERRβ: Table 1 second block
T1 construct: Human ERα and ERβ were examined as full-length proteins using an estrogen receptor responsive reporter construct; expressed in transfected cells; host or cells: CV-1
T1 sequence (Q92731 whole entry): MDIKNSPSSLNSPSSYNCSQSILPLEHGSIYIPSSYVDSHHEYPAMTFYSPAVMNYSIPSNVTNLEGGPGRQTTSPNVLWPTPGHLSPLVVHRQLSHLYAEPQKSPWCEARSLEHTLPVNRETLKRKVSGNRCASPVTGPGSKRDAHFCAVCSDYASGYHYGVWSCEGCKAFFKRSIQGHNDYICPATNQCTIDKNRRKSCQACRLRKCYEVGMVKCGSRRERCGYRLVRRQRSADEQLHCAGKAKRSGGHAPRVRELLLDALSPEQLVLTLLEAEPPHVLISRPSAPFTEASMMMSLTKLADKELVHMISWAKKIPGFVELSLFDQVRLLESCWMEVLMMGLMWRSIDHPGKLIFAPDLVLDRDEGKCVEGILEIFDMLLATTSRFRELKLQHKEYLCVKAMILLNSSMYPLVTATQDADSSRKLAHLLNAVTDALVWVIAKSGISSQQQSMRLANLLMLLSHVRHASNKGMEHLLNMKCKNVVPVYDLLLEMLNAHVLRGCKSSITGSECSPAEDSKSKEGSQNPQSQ
Experimental: (§1) Human ERα and ERβ were examined as full-length proteins using an estrogen receptor responsive reporter construct.
(§2) Suitable reporter gene constructs are well known to skilled workers in the fields of biochemistry and molecular biology. […] Other vectors known in the art can be used in the methods of the present invention.
(§3) CV-1 cells for the activation assays were grown in Dulbecco's modified Eagle's medium supplemented with 10% resin charcoal-stripped fetal bovine serum, 50 U/ml penicillin G and 50 μg/ml streptomycin sulfate (DMEM-FBS) at 37° C. in 5% CO2. One day prior to transfection, cells were plated to 50-80% confluence using phenol red free DMEM-FBS.

[2] = target: T2, HRHN-GAL (yeast GAL4 DNA binding domain without receptor sequences) (Saccharomyces cerevisiae, UniProt P04386); test: GAL4 reporter transactivation assay in CV-1 cells, control vector without receptor; format: cell-based, monkey; settings: for Fold activation, HRHN-GAL: reporter 0.42:vector 0.00875, no PGC-1a
T2 construct: expressed in transfected cells; host or cells: CV-1
T2 sequence (P04386 1-147): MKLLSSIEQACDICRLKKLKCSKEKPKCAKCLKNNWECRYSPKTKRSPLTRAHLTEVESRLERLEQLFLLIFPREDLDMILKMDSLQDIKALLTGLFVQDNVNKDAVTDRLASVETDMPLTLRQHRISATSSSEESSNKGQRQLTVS

[3] = tested on: estrogen receptor responsive reporter construct; test: Estrogen receptor responsive reporter in CV-1 cells without receptor (control of Table 1); format: cell-based; settings: Table 1 second block
Experimental: as §1, §2, §3

[4] = target: T3, GAL-L-hERRb (human ERRβ ligand binding domain fused to GAL4 DNA binding domain) (Homo sapiens, UniProt O95718); test: GAL4 reporter transactivation assay in CV-1 cells, GAL-L-hERRb; format: cell-based; settings: for Fold activation, GAL-L-hERRb + PGC-1a / Fold activation, GAL-L-hERRb / Fold activation, Receptor ERRβ: CV-1; for Fold activation, GAL-L-hERRb + PGC-1a: reporter 0.42:vector 0.00875:PGC-1a 0.035; for Fold activation, GAL-L-hERRb: reporter 0.42:vector 0.00875, no PGC-1a; for Fold activation, Receptor ERRβ: Table 1, reporter 0.42:receptor vector 0.035:PGC-1a 0.035
T3 construct: expressed in transfected cells; host or cells: CV-1
T3 sequence (O95718 208-432 limits assumed): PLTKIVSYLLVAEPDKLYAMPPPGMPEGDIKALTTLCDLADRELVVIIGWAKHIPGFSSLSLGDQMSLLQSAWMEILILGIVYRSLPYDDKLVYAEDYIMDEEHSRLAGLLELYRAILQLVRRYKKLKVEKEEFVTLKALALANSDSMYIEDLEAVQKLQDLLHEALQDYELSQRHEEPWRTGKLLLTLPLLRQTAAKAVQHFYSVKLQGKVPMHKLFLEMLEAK

[5] = target: T4, GAL-mERRg (mouse ERRγ ligand binding domain fused to GAL4 DNA binding domain) (Mus musculus, UniProt P62509); test: GAL4 reporter transactivation assay in CV-1 cells, GAL-mERRg; format: cell-based; settings: for Fold activation, GAL-mERRg + PGC-1a / Fold activation, GAL-mERRg / Fold activation, Receptor ERRγ: CV-1; for Fold activation, GAL-mERRg + PGC-1a: reporter 0.42:vector 0.00875:PGC-1a 0.035; for Fold activation, GAL-mERRg: reporter 0.42:vector 0.00875, no PGC-1a; for Fold activation, Receptor ERRγ: Table 1, reporter 0.42:receptor vector 0.035:PGC-1a 0.035
T4 construct: expressed in transfected cells; host or cells: CV-1
T4 sequence (P62509 233-457 limits assumed): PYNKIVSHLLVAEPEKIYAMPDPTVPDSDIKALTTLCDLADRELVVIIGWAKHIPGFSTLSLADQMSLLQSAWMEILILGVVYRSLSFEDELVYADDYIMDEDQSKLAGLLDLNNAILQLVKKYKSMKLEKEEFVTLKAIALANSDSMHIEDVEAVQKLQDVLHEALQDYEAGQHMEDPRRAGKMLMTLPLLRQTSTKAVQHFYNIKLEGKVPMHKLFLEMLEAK

- Activity on ERβ (activate or inhibit) ([1]; CV-1 reporter assay): failed to activate or inhibit
- Fold activation, Receptor ERRβ ([1]; CV-1, 3 μM): 1.1 fold
- Fold activation, Receptor ERRβ ([1]; CV-1, 10 μM): 1.0 fold
- Fold activation, Receptor ERRβ ([1]; CV-1, 30 μM): 1.2 fold
- Fold Activation, ERE-TK-luc, hERb ([1]; Table 7, CV-1, drug conc 30 μM): 1.19 fold
- Activation of ERb ([1]; specificity for ERRs): do not activate
- Fold activation, Receptor — (first block) ([2]; Table 1, reporter 0.42:receptor vector 0.035:PGC-1a 0.035, 3 μM): 0.8 fold
- Fold activation, Receptor — (first block) ([2]; Table 1, reporter 0.42:receptor vector 0.035:PGC-1a 0.035, 10 μM): 0.7 fold
- Fold activation, Receptor — (first block) ([2]; Table 1, reporter 0.42:receptor vector 0.035:PGC-1a 0.035, 30 μM): 0.9 fold
- Fold activation, HRHN-GAL ([2]; 0.3 μM): 1.03 fold
- Fold activation, HRHN-GAL ([2]; 1 μM): 0.94 fold
- Fold activation, HRHN-GAL ([2]; 3 μM (first 3 μM column)): 0.74 fold
- Fold activation, HRHN-GAL ([2]; 3 μM (second 3 μM column)): 0.74 fold
- Fold activation, HRHN-GAL ([2]; 10 μM): 0.77 fold
- Fold activation, HRHN-GAL ([2]; 30 μM): 0.79 fold
- Fold activation, HRHN-GAL + PGC-1a ([2]; reporter 0.42:vector 0.00875:PGC-1a 0.035, 0.3 μM): 1.00 fold
- Fold activation, HRHN-GAL + PGC-1a ([2]; reporter 0.42:vector 0.00875:PGC-1a 0.035, 1 μM): 0.65 fold
- Fold activation, HRHN-GAL + PGC-1a ([2]; reporter 0.42:vector 0.00875:PGC-1a 0.035, 3 μM (first 3 μM column)): 0.72 fold
- Fold activation, HRHN-GAL + PGC-1a ([2]; reporter 0.42:vector 0.00875:PGC-1a 0.035, 3 μM (second 3 μM column)): 1.09 fold
- Fold activation, HRHN-GAL + PGC-1a ([2]; reporter 0.42:vector 0.00875:PGC-1a 0.035, 10 μM): 0.69 fold
- Fold activation, HRHN-GAL + PGC-1a ([2]; reporter 0.42:vector 0.00875:PGC-1a 0.035, 30 μM): 0.81 fold
- Fold activation, GAL-L-hERRb + PGC-1a ([4]; 0.3 μM): 1.27 fold
- Fold activation, GAL-L-hERRb + PGC-1a ([4]; 1 μM): 1.19 fold
- Fold activation, GAL-L-hERRb + PGC-1a ([4]; 3 μM (first 3 μM column)): 1.80 fold
- Fold activation, GAL-L-hERRb + PGC-1a ([4]; 3 μM (second 3 μM column)): 2.02 fold
- Fold activation, GAL-L-hERRb + PGC-1a ([4]; 10 μM): 2.45 fold
- Fold activation, GAL-L-hERRb + PGC-1a ([4]; 30 μM): 2.52 fold
- Fold activation, GAL-L-hERRb ([4]; 0.3 μM): 0.84 fold
- Fold activation, GAL-L-hERRb ([4]; 1 μM): 1.05 fold
- Fold activation, GAL-L-hERRb ([4]; 3 μM (first 3 μM column)): 1.26 fold
- Fold activation, GAL-L-hERRb ([4]; 3 μM (second 3 μM column)): 1.15 fold
- Fold activation, GAL-L-hERRb ([4]; 10 μM): 2.14 fold
- Fold activation, GAL-L-hERRb ([4]; 30 μM): 2.46 fold
- Fold activation, Receptor ERRβ ([4]; 3 μM): 1.9 fold
- Fold activation, Receptor ERRβ ([4]; 10 μM): 3.1 fold
- Fold activation, Receptor ERRβ ([4]; 30 μM): 3.8 fold
- Fold activation of ERRβ ([4]; Table 1 conditions, concentrations of 10-30 μM): 3-4 fold
- Activation of ERRβ ([4]; in the presence of PGC-1a): can activate
- Fold activation, GAL-mERRg + PGC-1a ([5]; 0.3 μM): 1.38 fold
- Fold activation, GAL-mERRg + PGC-1a ([5]; 1 μM): 1.59 fold
- Fold activation, GAL-mERRg + PGC-1a ([5]; 3 μM (first 3 μM column)): 2.65 fold
- Fold activation, GAL-mERRg + PGC-1a ([5]; 3 μM (second 3 μM column)): 2.29 fold
- Fold activation, GAL-mERRg + PGC-1a ([5]; 10 μM): 2.82 fold
- Fold activation, GAL-mERRg + PGC-1a ([5]; 30 μM): 3.09 fold
- Fold activation, GAL-mERRg ([5]; 0.3 μM): 0.87 fold
- Fold activation, GAL-mERRg ([5]; 1 μM): 0.92 fold
- Fold activation, GAL-mERRg ([5]; 3 μM (first 3 μM column)): 1.26 fold
- Fold activation, GAL-mERRg ([5]; 3 μM (second 3 μM column)): 1.70 fold
- Fold activation, GAL-mERRg ([5]; 10 μM): 1.49 fold
- Fold activation, GAL-mERRg ([5]; 30 μM): 1.91 fold
- Fold activation, Receptor ERRγ ([5]; 3 μM): 5 fold and 5.0 fold
- Fold activation, Receptor ERRγ ([5]; 10 μM): 5.9 fold
- Fold activation, Receptor ERRγ ([5]; 30 μM): 6.6 fold
- Activation of ERRγ ([5]; in the presence of PGC-1a): can activate
SMILES: CCN(CC)c1ccc(C=NNC(=O)c2ccc(O)cc2)cc1 [DY131, 4-Hydroxy-benzoic acid (4-diethylamino-benzylidene)-hydrazide]
- Fold activation, Receptor — (second block) ([3]; 3 μM): 1.0 fold
- Fold activation, Receptor — (second block) ([3]; 10 μM): 1.1 fold
- Fold activation, Receptor — (second block) ([3]; 30 μM): 1.0 fold
